Source: patent US20120219623A1, “PHARMACEUTICAL COMPOSITIONS COMPRISING BI-1356 AND METFORMIN” (BOEHRINGER INGELHEIM INTERNATIONAL GMBH, priority 2009, published 2012)

Columns and labels:
[1] = test system: type 2 diabetes mellitus patients with insufficient glycemic control on metformin; settings: human, in vivo, 24 weeks
[2] = test system: type 2 diabetes patients with insufficient glycemic control on metformin plus sulfonylurea; experiment: 24-wk placebo-controlled study of linagliptin add-on to metformin plus sulfonylurea
[3] = therapeutic oral dose levels
[4] = test system: inadequately controlled, metformin-treated type 2 diabetic patients; experiment: 12-week randomized, double-blind study of BI 1356 add-on to metformin vs placebo or open label glimepiride; settings: 12 weeks

## CC#CCn1c(N2CCC[C@@H](N)C2)nc2c1c(=O)n(Cc1nc(C)c3ccccc3n1)c(=O)n2C [BI 1356]
[1]
  hypoglycemia, proportion of patients: 0.6%
  proportion of patients reporting at least one adverse event (AE): 52.8%
[2]; LI vs. PBO, FAS, P<0.05
  insulin resistance (HOMA-IR): improve
  β-cell function (HOMA-% B): improve
[2]; wk 24, full analysis set, add-on to MET plus SU
  adjusted mean difference between LI and PBO for the change in fasting plasma glucose (FPG) from baseline: -13 mg/dL
[3]
  excreted via the kidney: < 7 % of the administered oral dose
  route of excretion: primarily excreted unchanged via the bile
[4]
  drug-related hypoglycaemia: no case of hypoglycaemia
